Assay results: ChEMBL document CHEMBL4002635, “A novel monoterpenoid indole alkaloid with anticancer activity from Melodinus khasianus” (Bioorg Med Chem Lett, 2017)

Experiments:
A549 = assay: Antiproliferative activity against human A549 cells after 48 hrs by MTT assay; assay type: functional, cell-based; settings: A549, 48 h
K562 = assay: Antiproliferative activity against human K562 cells after 48 hrs by MTT assay; assay type: functional, cell-based; settings: K562, 48 h
PC-3 [1] = assay: Antiproliferative activity against human PC3 cells after 48 hrs by MTT assay; assay type: functional, cell-based; settings: PC-3, 48 h
MDA-MB-231 = assay: Antiproliferative activity against human MDA-MB-231 cells after 48 hrs by MTT assay; assay type: functional, cell-based; settings: MDA-MB-231, 48 h
PC-3 [2] = assay: Induction of apoptosis in human PC3 cells assessed as live cells at 0.1 uM after 24 hrs by Annexin-V FITC/7-AAD staining based flow cytometry (reference value: 98.8%); assay type: functional
PC-3 [3] = assay: Induction of apoptosis in human PC3 cells assessed as early apoptotic cells at 0.1 uM after 24 hrs by Annexin-V FITC/7-AAD staining based flow cytometry (reference value: 0.1%); assay type: functional
PC-3 [4] = assay: Induction of apoptosis in human PC3 cells assessed as late apoptotic cells at 0.1 uM after 24 hrs by Annexin-V FITC/7-AAD staining based flow cytometry (reference value: 0.31%); assay type: functional
PC-3 [5] = assay: Induction of apoptosis in human PC3 cells assessed as necrotic cells at 0.1 uM after 24 hrs by Annexin-V FITC/7-AAD staining based flow cytometry (reference value: 0.02%); assay type: functional
PC-3 [6] = assay: Induction of apoptosis in human PC3 cells assessed as live cells at 1 uM after 24 hrs by Annexin-V FITC/7-AAD staining based flow cytometry (reference value: 98.8%); assay type: functional
PC-3 [7] = assay: Induction of apoptosis in human PC3 cells assessed as early apoptotic cells at 1 uM after 24 hrs by Annexin-V FITC/7-AAD staining based flow cytometry (reference value: 0.1%); assay type: functional
PC-3 [8] = assay: Induction of apoptosis in human PC3 cells assessed as late apoptotic cells at 1 uM after 24 hrs by Annexin-V FITC/7-AAD staining based flow cytometry (reference value: 0.31%); assay type: functional
PC-3 [9] = assay: Induction of apoptosis in human PC3 cells assessed as necrotic cells at 1 uM after 24 hrs by Annexin-V FITC/7-AAD staining based flow cytometry (reference value: 0.02%); assay type: functional
PC-3 [10] = assay: Induction of apoptosis in human PC3 cells assessed as live cells at 10 uM after 24 hrs by Annexin-V FITC/7-AAD staining based flow cytometry (reference value: 98.8%); assay type: functional
PC-3 [11] = assay: Induction of apoptosis in human PC3 cells assessed as early apoptotic cells at 10 uM after 24 hrs by Annexin-V FITC/7-AAD staining based flow cytometry (reference value: 0.1%); assay type: functional
PC-3 [12] = assay: Induction of apoptosis in human PC3 cells assessed as late apoptotic cells at 10 uM after 24 hrs by Annexin-V FITC/7-AAD staining based flow cytometry (reference value: 0.31%); assay type: functional
PC-3 [13] = assay: Induction of apoptosis in human PC3 cells assessed as necrotic cells at 10 uM after 24 hrs by Annexin-V FITC/7-AAD staining based flow cytometry (reference value: 0.02%); assay type: functional
PC-3 [14] = assay: Induction of apoptosis in human PC3 cells assessed as caspase 3A negative cells at 0.1 uM after 24 hrs by flow cytometry (reference value: 97.5%); assay type: functional
PC-3 [15] = assay: Induction of apoptosis in human PC3 cells assessed as caspase 3A positive cells at 0.1 uM after 24 hrs by flow cytometry (reference value: 2.45%); assay type: functional
PC-3 [16] = assay: Induction of apoptosis in human PC3 cells assessed as caspase 3A negative cells at 1 uM after 24 hrs by flow cytometry (reference value: 97.5%); assay type: functional
PC-3 [17] = assay: Induction of apoptosis in human PC3 cells assessed as caspase 3A positive cells at 1 uM after 24 hrs by flow cytometry (reference value: 2.45%); assay type: functional
PC-3 [18] = assay: Induction of apoptosis in human PC3 cells assessed as caspase 3A negative cells at 10 uM after 24 hrs by flow cytometry (reference value: 97.5%); assay type: functional
PC-3 [19] = assay: Induction of apoptosis in human PC3 cells assessed as caspase 3A positive cells at 10 uM after 24 hrs by flow cytometry (reference value: 2.45%); assay type: functional
PC-3 [20] = assay: Induction of apoptosis in human PC3 cells assessed as increase in active caspase 3A after 24 hrs by flow cytometry; assay type: functional, cell-based
PC-3 [21] = assay: Induction of apoptosis in human PC3 cells assessed as downregulation of Bcl2 protein expression after 48 hrs by Western blot method; assay type: functional, cell-based
PC-3 [22] = assay: Induction of apoptosis in human PC3 cells assessed as increase in caspase-3 protein expression after 48 hrs by Western blot method; assay type: functional, cell-based
PC-3 [23] = assay: Induction of apoptosis in human PC3 cells assessed as increase in p53 protein expression after 48 hrs by Western blot method; assay type: functional, cell-based

Molecule C/C=C(/CO)[C@H]1C[C@@H]2c3[nH]c4ccccc4c3C[C@H]3N2C(=O)[C@@]13COC has an IC50 (A549) of 3260 nM, an IC50 (K562) of 1220 nM and an IC50 (PC-3 [1]) of 740 nM. It also gave an IC50 (MDA-MB-231) of 1840 nM, an Activity (PC-3 [2]) of 98.3% and an Activity (PC-3 [3]) of 0.27%. For the same molecule, the Activity (PC-3 [4]) was 0.56%, the Activity (PC-3 [5]) was 0.85% and the Activity (PC-3 [6]) was 97.3%. The Activity (PC-3 [7]) was 0.7%, the Activity (PC-3 [8]) was 1.14% and the Activity (PC-3 [9]) was 0.87%. The Activity (PC-3 [10]) was 79.7%, the Activity (PC-3 [11]) was 6.25% and the Activity (PC-3 [12]) was 8.97%. It also gave an Activity (PC-3 [13]) of 5.05%, an Activity (PC-3 [14]) of 97.1% and an Activity (PC-3 [15]) of 2.89%. For the same molecule, the Activity (PC-3 [16]) was 95.9%, the Activity (PC-3 [17]) was 4.1% and the Activity (PC-3 [18]) was 89.1%. The Activity (PC-3 [19]) was 10.9%, the Activity (PC-3 [20]) was “Dose-dependent effect” and the Activity (PC-3 [21]) was “Dose-dependent effect”. For the same molecule, the Activity (PC-3 [22]) was “Dose-dependent effect” and the Activity (PC-3 [23]) was “Dose-dependent effect”.
